From patent publication US10793614B2, “Antagonists of fish reproduction” (Yissum Research Development Company of the Hebrew …, priority 2014, dated 2020)
Numbered stars: 1 amine (or outer) side, 2 acyl side, 3 side chain; on linkers, the order of the positions; unused ones are H or OH. Square brackets hold non-standard residues; d marks the D form. Suc = O=C(CCC(=O)[*:2])[*:1]; NMeV = CN[C@H](C(=O)O)C(C)C; βAla = NCCC(=O)O

Experiments:
[1] = test system: Tilapia tac3ra and tac3rb; assay: CRE-luciferase reporter assay in COS-7 cells transfected with tilapia tac3 receptor; assay type: cell-based; details: for effect of antagonist alone on luciferase activity (CRE-Luc): no ligand; for inhibition of luciferase activity, antagonist with native ligands: different concentrations added concomitantly with 0.1 nM NKB or NKF
Description: There are two signal transduction pathways, one is relayed trough cAMP/PKA (protein kinase A), and the second is trough Ca2+/PKC. The PKA pathway is activated by CRE (cAMP response element) and the PKC through SRE ([…] response element).
In order to differentiate between the PKC and PKA signal transduction pathways, a sensitive luciferase (LUC) reporter gene assay was utilized by using the LUC transcriptionally regulated by a serum response element (SRE; Invitrogen) or cyclic AMP (cAMP) response element (CRE; Invitrogen). Tilapia tac3ra and tac3rb (GenBank accession numbers KF471674 and KF471675, respectively) or zebrafish tac3ra and tac3rb (JF317292, and JF317293, respectively) were cloned in pcDNA3.1 expression vector (Zeo-; Invitrogen) under the control of the CMV promoter.
Transient transfection, cell procedures and stimulation protocols were generally according to (Levavi-Sivan et al., 2005, Mol Cell Endocrinol 236:17-30; Biran et al., 2008, ibid, Biran et al., 2012, ibid, Biran et al., 2014 ibid). Briefly, COS-7 cells were grown in DMEM supplemented with 10% FBS, 1% glutamine, 100 U/ml penicillin, and […] streptomycin (Biological Industries) under 5% CO2 until confluent. Cotransfection of either pc-tac3ra, pc-tac3rb (at 3 μg/plate), a reporter plasmid (at 2 μg/plate), and pCM.
Transfection was carried out with FuGENE 6.0 reagent (Roche). The cells were serum starved for 36 h, stimulated with vehicle or various concentrations of either human NKB, tilapia NKB, tilapia NKF, zebrafish NKBa, NKBb or zebrafish NKF for 6 h, and then harvested and analyzed.
Lysates prepared from the harvested cells were assayed for both luciferase activity and β-galactosidase activity, which was used as an internal standard to normalize the luciferase activity directed by the test plasmid, as described previously. Transfection experiments were performed in triplicate with three independently isolated sets.
The concentrations of ligand used were from 1 nM to 1 μM. Treatments were performed in quadruplicate in three independent experiments.
Each antagonist was added at different concentrations with a constant concentration of the wild-type NKB or NKF, at a dose of the ligand (10^−8M) that gave a response close to the ED50. The results were analyzed by Prism software, according to a non-linear regression one-site competition curve.
The effect of NKB antagonists was tested in tilapia when each antagonist was added at different concentration concomitantly with NKB at 10^−8 M ([…]). Tilapia NKB increased the luciferase activity by 1.8 fold. The various antagonists reduced this response by approximately 60% (FIG. 1A). Similar results were obtained using the SRE response (FIG. 1B). […]

[2] = test system: gonadotropin release in tilapia; assay: In vivo gonadotropin (FSH, LH) release in sexually mature tilapia females; details: 10, 100 or 500 μg/kg body weight injected; 1, 2, 4, 8 h; starting 1 hour after injection
Protocol: SB222200 was further tested in vivo for its NKB antagonistic activity on gonadotropin release in tilapia. Sexually mature tilapia females (0.62±0.22%; n=10/treatment) were injected with different doses of the NKB non-peptide antagonist SB222200 (10, 100 or 500 μg/kg body weight) at time 0. 1, 2, 4 and 8 hours after the injection the fish were bled from their caudal vasculature. The levels of the gonadotropins FSH and LH were determined using specific ELISA according to Aizen et al., 2007 (Aizen et al., 2007, Gen Comp Endocrinol, vol. 153, pp 323-332).

Adult male Tilapia [3] = assay: In vivo ip injection of adult male tilapia: testis histology, plasma 11KT; details: versus control; for increase of plasma 11KT levels: 500 μg/kg BW ip every 48 h, 0 to 12 days
Protocol: Adult male Tilapia (BW 90 g) were injected ip with saline and 25% DMSO, SB2222000, or the NKB antagonists Ant-4 (500 μg/kg BW every 48 h for 2 weeks, […]). The fish were bled from the caudal blood vessels into heparinized syringes every 2 days after injection. At days 7 and 14 five fish from each group were bled, striped for sperm volume and gonads were taken for Histology. Plasma was analyzed for LH, FSH and 11KT. Blood samples were collected from the caudal vasculature and centrifuged (3000 rpm for 20 minutes at 4° C.) to obtain plasma samples, which were stored at −20° C. until assayed, ELISAs were performed according to (Aizen et al., 2007, Gen Comp Endocrinol, vol. 153, pp 323-332) for FSH and LH and according to Hurvitz et al., 2005 (Gen Comp Endocrinol 140:61-73) for 11KT 1-ketotestosterone, the main androgen in fish which is involved in spermatogenesis). FIG. 6 represents histological observations of gonads from testes of treated fish versus control fish. Fish testes are organized in cysts. […] From right to left: semen from fish injected with SB222200; semen from control fish; semen from fish injected with NKB-antagonist #4. 11KT is the main androgen in fish and is involved in spermatogenesis.

Adult male Tilapia [4] = assay: In vivo growth of injected adult male tilapia; details: 500 μg/kg BW ip every 48 h for 2 weeks; day 21, seven days after end of treatment
Protocol: Adult male tilapia (BW 60 g) were injected ip with saline and 25% DMSO, SB2222000, or NKB antagonists Ant-6 (500 μg/kg BW every 48 h for 2 weeks, n=25 fish per group). Fish were weighed every 7 days.

Salmon tac3 receptor = assay: CRE-Luc reporter assay in COS-7 cells transfected with salmon tac3r; assay type: cell-based; details: with wild-type NKB at 10^-8 M
Protocol: Similar to the in-vitro experiments performed in Example 2 in Tilapia and Zebrafish, the inhibition of NKB activity was tested in Salmon fish. Salmon tac3 receptor was cloned in pcDNA3.1 expression vector (Zeo-; Invitrogen) under the control of the CMV promoter. Transfection was carried out with FuGENE 6.0 reagent (Roche). The cells were serum starved for 36 h, stimulated with vehicle or various concentrations of either tilapia NKB for 6 h, and then harvested and analyzed. Lysates prepared from the harvested cells were assayed for both luciferase activity and β-galactosidase activity, which was used as an internal standard to normalize the luciferase activity directed by the test plasmid. Transfection experiments were performed in triplicate with three independently isolated sets. The concentrations of ligand used were from 1 nM to 1 μM. Treatments were performed in quadruplicate in three independent experiments. Each antagonist (NKB-ant 4 and NKB-ant 6) was added at different concentrations with a constant concentration of the wild-type NKB (10^−8M) that gave a response close to the ED50. The results were analyzed by Prism software, according to a non-linear regression one-site competition curve. When salmon tac3 was transfected, NKB increased the luciferase activity by 1.8 fold.

Row | Molecule | effect of antagonist alone on luciferase activity (CRE-Luc) [1] | inhibition of luciferase activity, antagonist with native ligands [1] | FSH levels [2] | LH levels [2] | increase of plasma 11KT levels (Adult male Tilapia [3]) | growth (body weight) (Adult male Tilapia [4]) | histological observations of testes (Adult male Tilapia [3]; 500 μg/kg BW ip every 48 h for 2 weeks) | reduction of the NKB luciferase response by antagonist (Salmon tac3 receptor)
1 | CC(=O)N(C)C1(c2ccccc2)CCN(CCCC2(c3ccc(Cl)c(Cl)c3)CCCN(C(=O)c3ccccc3)C2)CC1 (stereo in doubt) [Osanetant (SR-142,801), (S)-(1)-N-{{3-[1-benzoyl-3-(3,4-dichlorophenyl)piperidin-3-yl]prop-1-yl}-4-phenylpiperidin-4-yl}-N-methyl acetamide] | no effect | typical inhibition curve |  |  |  |  |  | 
2 | CC[C@H](NC(=O)c1c(C)c(-c2ccccc2)nc2ccccc12)c1ccccc1 [SB222200, (S)-(2)-N-(a-ethylbenzyl)-3-methyl-2-phenylquinoline-4-carboxamide] | no effect | typical inhibition curve | significant gradual decline | significant gradual decline | significantly inhibited | significant growth |  | 
3 | Succ-Asp-Ile-D-Trp-N(Me)Val-βAla-Leu-Met-NH2 (Suc-DI[dW][NMeV][βAla]LM-NH2; SMILES CC[C@H](C)[C@H](NC(=O)[C@H](CC(=O)O)NC(=O)CCC(=O)O)C(=O)N[C@H](Cc1c[nH]c2ccccc12)C(=O)N(C)[C@H](C(=O)NCCC(=O)N[C@@H](CC(C)C)C(=O)N[C@@H](CCSC)C(N)=O)C(C)C) [Ant-4] |  |  |  |  | significantly inhibited |  | more partially empty cysts with mature spermatozoa | approximately 60%
